Assay results: patent publication US20140142128A1, “METHODS OF TREATING A DISEASE OR DISORDER ASSOCIATED WITH BRUTON'S TYROSINE KINASE” (Celgene Avilomics Research, Inc., priority 2012, published 2014)

Assays:
[1] = test system: Btk responsive site (Tyr1217) on PLCγ2; test: PLCγ2 phosphorylation in Ramos cells; type: cell-based; details: human Burkitt lymphoma cell line, read-out: EC50, inhibition of phosphorylation of the Btk responsive site (Tyr1217) on PLCγ2
relapsed/refractory CLL = details: lenalidomide 25 mg for 21 days of every 28-day cycle; cited from earlier work

Structure (SMILES)	EC50 [1] [nM]	Clinical responses (CR or PR) in subjects refractory to fludarabine (relapsed/refractory CLL) [%]	Clinical responses (CR or PR) in subjects with del (11)(q23) and/or del (17)(p13.1) adverse cytogenetics (relapsed/refractory CLL) [%]
C=CC(=O)Nc1cccc(Nc2nc(Nc3ccc(OCCOC)cc3)ncc2F)c1 [Compound 1, N-(3-(5-fluoro-2-(4-(2-methoxyethoxy)phenylamino)pyrimidin-4-ylamino)phenyl)acrylamide]	1 to 10		
Nc1cccc2c1CN(C1CCC(=O)NC1=O)C2=O (stereo not drawn) [lenalidomide, 3-(4-amino-1-oxo-1,3-dihydro-2H-isoindol-2-yl)piperidine-2,6-dione]		30	47
